Measurements reported in publication PMC11513923, “Discovery of ZLC491 as a Potent, Selective, and Orally Bioavailable CDK12/13 PROTAC Degrader” (Journal of Medicinal Chemistry, 2024).

What was measured:
[1] = system: DDR proteins (BRCA1, RAD51, ATM); experiment: Immunoblotting of DDR proteins in MDA-MB-231 cells; format: cell-based, human; settings: MDA-MB-231, different doses, 48 h
Protocol: We next evaluated the effect of ZLC491 on the expression of DDR genes regulated by CDK12/13.
(A) Transcription level of DDR genes in MDA-MB-231 cells determined by RT-qPCR upon the treatment with vehicle or ZLC491 at different doses for 12 h, ROR1 was used as a negative control; (B) immunoblotting of DDR proteins in MDA-MB-231 cells after the treatment of ZLC491 at different doses for 48 h; (C) cell antiproliferative activity of ZLC491 in multiple TNBC cells as well as several noncancerous cells. Cells were treated with the compound for 5 days; (D,E) antiproliferative potency of cisplatin or olaparib alone or combined with ZLC491 at different doses in MDA-MB-231 cells for 5 days. Data are plotted using the percentage of absorbance relative to DMSO controls. (F) IC50 values and combination index (CI) in drug combination assay. In this model, CI scores estimate the interaction between the two drugs. If CI < 1, the drugs have a synergistic effect and if CI > 1, the drugs have an antagonistic effect. CI = 1 means the drugs have an additive effect. ^aThe drug combination in the table refers to the starting concentration of the two combined drugs, that would both go through serial dilution when treating cells. […]

Pharmacokinetics in rats = format: in vivo, rat; settings: male, Sprague-Dawley, rat, plasma
Protocol: We further evaluated the in vivo PK properties of compound ZLC491 and the counterpart 4m (without F substitution) in rats, and the results were summarized in Table 2. […] The PK profiles of F-containing compound ZLC491 were further improved.
The pharmacokinetic investigation was taken by Shanghai Medicilon Inc. (Project Code: 26048-23001-NG). Sprague–Dawley male rats (Specific pathogen Free (SPF), provided by Zhejiang Vital River Laboratory Animal Technology Co. Ltd.) were dosed with ZLC491 solution formulation (5% DMSO, 10% Solutol, 85% normal saline, 2.5 mg/kg for intravenous dose, 10 mg/kg for oral dose) or compound 4m solution formulation (5% DMSO, 10% Solutol, 85% (20%HP-β-CD), 2.5 mg/kg for intravenous dose, 10 mg/kg for oral dose). Blood samples were collected at 0.083, 0.25, 0.5, 1, 2, 4, 8, and 24 h in intravenous administration, 0.25, 0.5, 1, 2, 4, 6, 8, and 24 h in oral administration. The blood samples were collected from sets of three rats at each time point in labeled microcentrifuge tubes containing heparin sodium as an anticoagulant. Plasma samples were separated by centrifugation (2–8 °C, 6800g for 6 min) within 1 h and stored below −80 °C until bioanalysis. All samples were processed for analysis by precipitation using acetonitrile and analyzed with a partially validated LC/MS/MS method. Pharmacokinetic parameters were calculated using the noncompartmental analysis tool of WinNonlin Enterprise software.

MDA-MB-231 cells = experiment: Cell proliferation assay (CCK-8); format: cell-based; settings: Homo sapiens, MDA-MB-231, 120 h; 5 days
Protocol: (A) Transcription level of DDR genes in MDA-MB-231 cells determined by RT-qPCR upon the treatment with vehicle or ZLC491 at different doses for 12 h, ROR1 was used as a negative control; (B) immunoblotting of DDR proteins in MDA-MB-231 cells after the treatment of ZLC491 at different doses for 48 h; (C) cell antiproliferative activity of ZLC491 in multiple TNBC cells as well as several noncancerous cells. Cells were treated with the compound for 5 days; (D,E) antiproliferative potency of cisplatin or olaparib alone or combined with ZLC491 at different doses in MDA-MB-231 cells for 5 days. Data are plotted using the percentage of absorbance relative to DMSO controls. (F) IC50 values and combination index (CI) in drug combination assay. In this model, CI scores estimate the interaction between the two drugs. If CI < 1, the drugs have a synergistic effect and if CI > 1, the drugs have an antagonistic effect. CI = 1 means the drugs have an additive effect. ^aThe drug combination in the table refers to the starting concentration of the two combined drugs, that would both go through serial dilution when treating cells.
TNBC cell lines MDA-MB-231, MDA-MB-436 and HCC38, human embryonic kidney cell line HEK 293 and human embryonic lung cell line MRC-5 were purchased from American Type Culture Collection (ATCC). Human mammary epithelial cell line MCF 10A was obtained from Chinese Academy of Sciences National Collection of Authenticated Cell Cultures. MDA-MB-231 was maintained in Leibovitz’ s L-15 medium (Gibco) supplemented with 10% fetal bovine serum (FBS; Excell Bio) and 1% penicillin/streptomycin (P/S; Gibco) at 37 °C in a humidified chamber of 100% air atmosphere. MDA-MB-436 and HCC38 were developed in Dulbecco’s modified Eagle medium (DMEM; Gibco) and RPMI-1640 medium (Gibco), respectively, both supplemented with 10% FBS (Excell Bio) and 1% P/S (Gibco), using a 37 °C constant temperature incubator with 5% CO2. HEK 293 and MRC-5 were cultured in the same condition with Eagle’s minimum essential medium (EMEM; Wisent). MCF 10A was grown in Mammary Epithelial Cell Growth Medium BulletKit (Lonza) at 37 °C in a humidified chamber with 5% CO2.
Tested cells were plated in 96-well or 384-well plates and incubated at 37 °C with or without 5% CO2. After overnight incubation, serial dilutions of compounds were added to the plate. Cell proliferation was measured 5 days after compound treatment using Cell Counting Kit-8 (Selleck) according to the manufacturer’s instructions.

SMILES: N#Cc1ccc(N[C@H]2CC[C@H](N(C(=O)NCc3ccccc3)c3ccc(N4CCN(C5CCN(c6cc7c(cc6F)C(=O)N(C6CCC(=O)NC6=O)C7=O)CC5)CC4)cc3)CC2)nc1 (stereo partly shown) [ZLC491, 3-Benzyl-1-((1r,4r)-4-((5-cyanopyridin-2-yl)amino)cyclohexyl)-1-(4-(4-(1-(2-(2,6-dioxopiperidin-3-yl)-6-fluoro-1,3-dioxoisoindolin-5-yl)piperidin-4-yl)piperazin-1-yl)phenyl)urea]
- protein levels of DDR-relative proteins (BRCA1, RAD51, ATM) [1]: reduced
- AUC(0-t) at 24 h (Pharmacokinetics in rats; iv, i.v. 2.5 mg/kg): 6820 ng·h/mL
- Cmax at 24 h (Pharmacokinetics in rats; iv, i.v. 2.5 mg/kg): 4590 ng/mL
- clearance at 24 h (Pharmacokinetics in rats; iv, i.v. 2.5 mg/kg): 6.38 mL/min/kg
- half-life at 24 h (Pharmacokinetics in rats; iv, i.v. 2.5 mg/kg): 2.46 h
- bioavailability at 24 h (Pharmacokinetics in rats; oral bioavailability, p.o. 10 mg/kg vs i.v. 2.5 mg/kg): 46.8%
- AUC(0-t) at 24 h (Pharmacokinetics in rats; po, p.o. 10 mg/kg): 12800 ng·h/mL
- Cmax at 24 h (Pharmacokinetics in rats; po, p.o. 10 mg/kg): 1310 ng/mL
- half-life at 24 h (Pharmacokinetics in rats; po, p.o. 10 mg/kg): 2.92 h
- IC50 (MDA-MB-231 cells): 620 nM
